# Values of other authors, collected in US20130190270A1, “Method for Improving Vein Performance in Bypass Surgery” (priority 2012, published 2013).
# Where two headings read alike, the source gives them in different places.
# Assays:
# [1] = tested on: atherosclerosis; conditions: humans
# [2] = tested on: atherosclerosis; conditions: mice
# [3] = tested on: atherosclerosis; conditions: guinea pigs
# [4] = tested on: circulating sPLA2-IIA; conditions: patients who underwent CABG
Compound,effect on atherosclerosis [1],effect on atherosclerosis [2],effect on atherosclerosis [3],effect on circulating sPLA2-IIA levels [4]
CCc1c(C(=O)C(N)=O)c2c(OCC(=O)O)cccc2n1Cc1ccccc1,can reduce atherosclerosis,can reduce atherosclerosis,can reduce atherosclerosis,
heparin,,,,induce increased circulating sPLA2-IIA levels
